Reference: ChEMBL document CHEMBL1201862, “PubChem BioAssay data set” (2004)
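Exposure lasted 48 hours, with cells grown in 96-well plates and compounds tested at five concentrations. GI50: concentration for 50% inhibition of growth.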 Active and inactive are the calls of the source. Rule as the data show it: active = GI50 up to about 1.1 µM and inactive = higher.

Columns and labels:
Experiment in all cases: NCI-60 cell line screen, 48 h
COLO 205 = system: COLO 205
HCC 2998 = system: HCC 2998
HCT-116 = system: HCT-116
HOP-92 = system: HOP-92
K562 = system: K562
KM-20L2 = system: KM-20L2
NCI-H226 = system: NCI-H226
OVCAR-4 = system: OVCAR-4
SF-539 = system: SF-539
SK-MEL-28 = system: SK-MEL-28
SN12C = system: SN12C
U-251 = system: U-251
UACC-257 = system: UACC-257
SR = system: SR

Measured: GI50

c1cnc2c3[nH]cc4[nH]c5ccccc5c4c-3nc2c1
inactive: COLO 205 54.7 µM | HCC 2998 52.4 µM | HCT-116 44.7 µM | HOP-92 16.9 µM | K562 36.5 µM | KM-20L2 76.2 µM | NCI-H226 48.3 µM | OVCAR-4 44 µM | SF-539 93.3 µM | SK-MEL-28 50.5 µM | SN12C > 100 µM | U-251 75.3 µM | UACC-257 > 100 µM

Cc1[nH]c2ccccc2c1/C=C/c1c(C)[nH]c2ccccc12
inactive: HCC 2998 > 100 µM | HCT-116 > 100 µM | K562 > 100 µM | KM-20L2 > 100 µM | NCI-H226 > 100 µM | OVCAR-4 > 100 µM | SF-539 > 100 µM | SK-MEL-28 > 100 µM | U-251 > 100 µM | UACC-257 > 100 µM

Cc1cc(Cl)ccc1NC(=O)C(=O)Cc1nc2ccccc2o1
inactive: COLO 205 > 100 µM | HCC 2998 > 100 µM | HOP-92 > 100 µM | K562 > 100 µM | KM-20L2 > 100 µM | OVCAR-4 > 100 µM | SF-539 > 100 µM | SK-MEL-28 > 100 µM | SN12C > 100 µM | U-251 > 100 µM | UACC-257 > 100 µM

Cc1cc(Cl)ccc1C1OC(=O)c2c1ccc1ccccc21 (configuration not stated)
inactive: COLO 205 > 100 µM | HCC 2998 > 100 µM | HCT-116 > 100 µM | HOP-92 > 100 µM | K562 > 100 µM | KM-20L2 > 100 µM | NCI-H226 > 100 µM | OVCAR-4 23.6 µM | SF-539 > 100 µM | SK-MEL-28 > 100 µM | SN12C > 100 µM | U-251 > 100 µM | UACC-257 > 100 µM

Cc1ccc(S(=O)(=O)N/N=C/C(C)C)cc1
inactive: COLO 205 > 100 µM | HCC 2998 > 100 µM | HCT-116 > 100 µM | HOP-92 24.9 µM | K562 > 100 µM | KM-20L2 > 100 µM | OVCAR-4 > 100 µM | SF-539 > 100 µM | SN12C > 100 µM | U-251 > 100 µM | UACC-257 > 100 µM

Nc1nc(S)nc(C(=O)Nc2nccs2)c1-c1ccccc1
inactive: COLO 205 > 100 µM | HCC 2998 > 100 µM | HCT-116 > 100 µM | HOP-92 > 100 µM | K562 > 100 µM | KM-20L2 > 100 µM | NCI-H226 > 100 µM | OVCAR-4 > 100 µM | SF-539 > 100 µM | SK-MEL-28 > 100 µM | SN12C > 100 µM | SR > 100 µM | U-251 > 100 µM | UACC-257 > 100 µM

O=Cc1ccc2c(c1I)OCO2
inactive: COLO 205 > 100 µM | HCC 2998 > 100 µM | HCT-116 > 100 µM | K562 > 100 µM | KM-20L2 > 100 µM | NCI-H226 > 100 µM | OVCAR-4 > 100 µM | SF-539 > 100 µM | SN12C > 100 µM | SR > 100 µM | U-251 > 100 µM | UACC-257 > 100 µM

O=[N+]([O-])c1ccc(-c2noc(-c3ccc(Cl)cc3)c2C2=NCCN2)cc1
inactive: COLO 205 > 100 µM | HCC 2998 > 100 µM | HCT-116 > 100 µM | K562 > 100 µM | KM-20L2 > 100 µM | NCI-H226 > 100 µM | OVCAR-4 > 100 µM | SF-539 > 100 µM | SK-MEL-28 > 100 µM | SN12C > 100 µM | SR > 100 µM | U-251 > 100 µM | UACC-257 > 100 µM

C=CSCCC(N)C(=O)O (configuration not stated)
inactive: COLO 205 > 100 µM | HCC 2998 > 100 µM | HCT-116 > 100 µM | HOP-92 > 100 µM | K562 > 100 µM | KM-20L2 > 100 µM | NCI-H226 > 100 µM | OVCAR-4 > 100 µM | SF-539 > 100 µM | SK-MEL-28 > 100 µM | SN12C > 100 µM | SR > 100 µM | U-251 > 100 µM | UACC-257 > 100 µM

CC(=O)Nc1ccc(S(=O)(=O)N/N=C/c2cc(I)cc([N+](=O)[O-])c2O)cc1
inactive: COLO 205 > 100 µM | HCC 2998 > 100 µM | K562 57.3 µM | KM-20L2 > 100 µM | NCI-H226 62.4 µM | OVCAR-4 30.3 µM | SK-MEL-28 25.2 µM | SN12C 64.3 µM | U-251 49.4 µM | UACC-257 > 100 µM

Cc1c(NC(=O)C(C)(C)Br)c(=O)oc2c(C)c3occc(=O)c3cc12
inactive: COLO 205 > 100 µM | HCC 2998 > 100 µM | HCT-116 59.4 µM | K562 64.3 µM | KM-20L2 41.4 µM | NCI-H226 23.3 µM | OVCAR-4 49.8 µM | SF-539 43.7 µM | SK-MEL-28 > 100 µM | SN12C 52.4 µM | SR 43 µM | U-251 72.9 µM | UACC-257 > 100 µM

Nc1c(-c2cn(Cc3ccccc3)c3ccccc23)[n+]([O-])c2ccccc2[n+]1[O-]
inactive: COLO 205 35.3 µM | HCC 2998 35.8 µM | HOP-92 8.79 µM | K562 24.5 µM | KM-20L2 34.6 µM | NCI-H226 6.35 µM | OVCAR-4 43.6 µM | SK-MEL-28 25.4 µM | SN12C 31.8 µM | U-251 32.5 µM | UACC-257 12.8 µM

O=c1[nH]c(=O)n(C2OC(CO)C(N(O)Cc3ccc(F)cc3)C2O)cc1Br (configuration not stated)
inactive: COLO 205 > 100 µM | HCC 2998 > 100 µM | HCT-116 > 100 µM | HOP-92 > 100 µM | K562 > 100 µM | KM-20L2 > 100 µM | OVCAR-4 > 100 µM | SF-539 > 100 µM | SK-MEL-28 > 100 µM | SN12C > 100 µM | SR > 100 µM | U-251 > 100 µM | UACC-257 > 100 µM

O=C(Nc1nnc(S)[nH]1)C(=O)C(C(=O)c1ccc2ccccc2c1)C1OC(=O)c2ccccc21 (configuration not stated)
inactive: COLO 205 15.9 µM | HCC 2998 11.5 µM | HCT-116 13.7 µM | HOP-92 25.8 µM | K562 21 µM | KM-20L2 35.3 µM | NCI-H226 4.85 µM | OVCAR-4 16.2 µM | SF-539 5.56 µM | SK-MEL-28 14.8 µM | SN12C 18.2 µM | U-251 8.15 µM | UACC-257 19.7 µM

c1ccc(P(=C2c3ccccc3-c3ccccc32)(c2ccccc2)c2ccccc2)cc1
inactive: COLO 205 3.42 µM | HCC 2998 3.63 µM | HOP-92 2.75 µM | K562 2.1 µM | KM-20L2 2.56 µM | OVCAR-4 6.1 µM | SF-539 11.5 µM | SK-MEL-28 6.5 µM | SN12C 3.15 µM | U-251 3.05 µM | UACC-257 3.94 µM

O=C1/C(=N\O)C2CCC1C2 (configuration not stated)
inactive: COLO 205 > 100 µM | HCC 2998 > 100 µM | HCT-116 > 100 µM | HOP-92 > 100 µM | K562 > 100 µM | KM-20L2 > 100 µM | NCI-H226 > 100 µM | OVCAR-4 > 100 µM | SF-539 > 100 µM | SK-MEL-28 > 100 µM | SN12C > 100 µM | U-251 > 100 µM | UACC-257 > 100 µM

CC1=CC(=O)C(=O)C2=C1OC1(C2)C(C)CCC2C3(C)CCC(O)C(C)(C)C3CCC21C (configuration not stated)
inactive: COLO 205 16.3 µM | HCC 2998 19 µM | HCT-116 15.3 µM | HOP-92 17.3 µM | K562 17 µM | KM-20L2 18.7 µM | NCI-H226 18.2 µM | OVCAR-4 17.2 µM | SF-539 > 100 µM | SK-MEL-28 20.5 µM | SN12C > 100 µM | SR 23.8 µM | U-251 14.6 µM | UACC-257 18.9 µM

CCOC(=O)C(C)Sc1nnc(COc2ccc(Cl)cc2)n1-c1ccccc1 (configuration not stated)
inactive: COLO 205 18.4 µM | HCC 2998 22.5 µM | HCT-116 21.4 µM | HOP-92 20.8 µM | K562 13.6 µM | KM-20L2 18.5 µM | NCI-H226 21.5 µM | OVCAR-4 20.6 µM | SF-539 21.4 µM | SK-MEL-28 21.3 µM | SN12C 17.9 µM | U-251 19.5 µM | UACC-257 23.6 µM

CCOC(=O)Cn1c(=O)[nH]c(=O)c2[nH]cnc21
inactive: COLO 205 > 100 µM | HCC 2998 > 100 µM | HCT-116 > 100 µM | K562 > 100 µM | KM-20L2 > 100 µM | OVCAR-4 > 100 µM | SF-539 > 100 µM | SK-MEL-28 > 100 µM | SN12C > 100 µM | SR > 100 µM | U-251 > 100 µM | UACC-257 > 100 µM

CS(=O)(=O)OCCCOS(C)(=O)=O
inactive: COLO 205 > 100 µM | HCC 2998 > 100 µM | HCT-116 > 100 µM | HOP-92 > 100 µM | K562 > 100 µM | KM-20L2 > 100 µM | NCI-H226 > 100 µM | OVCAR-4 > 100 µM | SF-539 > 100 µM | SK-MEL-28 > 100 µM | SN12C > 100 µM | SR > 100 µM | U-251 > 100 µM | UACC-257 > 100 µM

COC(=O)CC(=O)OC1C[C@@H]2CCC3C(C)(C)CCC[C@]3(C)C23CC[C@@]1(C)C3 (some centres not stated)
inactive: COLO 205 18.6 µM | HCC 2998 19.8 µM | HCT-116 17.3 µM | HOP-92 18 µM | K562 > 100 µM | KM-20L2 20 µM | NCI-H226 28.6 µM | OVCAR-4 16.9 µM | SF-539 19.6 µM | SK-MEL-28 19.8 µM | SN12C 17.5 µM | SR > 100 µM | U-251 17.4 µM | UACC-257 19.1 µM
